Measured values taken from patent EP4650362A1, “NEUROPROTECTIVE PSD-95 POLYPEPTIDE INHIBITOR AND USE THEREOF” (Beijing Tuo Jie Biopharmaceutical Co. Ltd., priority 2023, dated 2024).
Non-standard residues stand in square brackets, D forms with d. Residues, ends and D or L forms follow the SMILES beside them. No end group written: not given here. Tle = CC(C)(C)[C@H](N)C(=O)O; Dab = NCC[C@H](N)C(=O)O; Aib = CC(C)(N)C(=O)O

Test system: histamine release
Assay: ability to induce histamine release in rats (plasma)
Format: in vivo, SD rats
Set-up: Histamine levels (sums of detected histamine and 3-methylhistamine): unit not given here
Settings: for Histamine levels (sums of detected histamine and 3-methylhistamine): rat plasma
Description: With male SD rats as test animals, the ability of a polypeptide compound administered via single intravenous bolus injection to induce histamine release in rats (plasma) was studied.
This test was performed synchronously with Test Examples 3.6, with three animals per group and blood collection time points set as follows: before administration, and 2 min, 8 min, and 15 min after the end of intravenous bolus injection.
The histamine and 3-methylhistamine levels at each time point were determined by LC-MS/MS. LC-MS detection of compounds: (1) Chromatographic conditions: mobile phase A: acetonitrile/water/100 mM ammonium acetate, 50/45/5 (v/v/v), 2% FA; mobile phase B: acetonitrile/100 mM ammonium acetate, 95/5 (v/v), 2% FA; flow rate: 0.4 mL/min; chromatography column: Waters BEH HILIC 1.7 µm, 2.1 × 150 mm; column temperature: 50 °C; injection volume: 20 µL. (2) Mass-spectrometric conditions: The mass spectrometry analysis used an electrospray ionization (ESI) source, a positive ion analysis mode, and a multi-reaction monitoring (MRM) scan mode.
Sample pretreatment: A 30 µL plasma sample was taken and added to 200 µL of an acetonitrile solution containing tetradeuterated histamine (D4-histamine, 100 ng/mL). The mixture was vortexed for 1 min and then centrifuged at 5800 rpm for 10 min, and 100 µL of the supernatant was transferred to a sample tray and injected into an instrument for analysis. […] Table 7. Histamine levels at different time points

[1] = 3 nmol/g, 0 min (before administration)
[2] = 3 nmol/g, 2 min after the end of intravenous bolus injection
[3] = 3 nmol/g, 8 min after the end of intravenous bolus injection
[4] = 3 nmol/g, 15 min after the end of intravenous bolus injection

Row | Molecule | Histamine levels (sums of detected histamine and 3-methylhistamine) (0.3 nmol/g, 0 min (before administration)) | Histamine levels (sums of detected histamine and 3-methylhistamine) (0.3 nmol/g, 2 min after the end of intravenous bolus injection) | Histamine levels (sums of detected histamine and 3-methylhistamine) (0.3 nmol/g, 8 min after the end of intravenous bolus injection) | Histamine levels (sums of detected histamine and 3-methylhistamine) (0.3 nmol/g, 15 min after the end of intravenous bolus injection) | Histamine levels (sums of detected histamine and 3-methylhistamine) (1 nmol/g, 0 min (before administration)) | Histamine levels (sums of detected histamine and 3-methylhistamine) (1 nmol/g, 2 min after the end of intravenous bolus injection) | Histamine levels (sums of detected histamine and 3-methylhistamine) (1 nmol/g, 8 min after the end of intravenous bolus injection) | Histamine levels (sums of detected histamine and 3-methylhistamine) (1 nmol/g, 15 min after the end of intravenous bolus injection) | Histamine levels (sums of detected histamine and 3-methylhistamine) [1] | Histamine levels (sums of detected histamine and 3-methylhistamine) [2] | Histamine levels (sums of detected histamine and 3-methylhistamine) [3] | Histamine levels (sums of detected histamine and 3-methylhistamine) [4] | increase in histamine levels (rats, medium (1 nmol/g) or low (0.3 nmol/g) dose, within 15 min) | peak histamine release relative to NA-1 (rats, same high dose (3 nmol/g), 2 min)
1 | CC(C)[C@H](NC(=O)[C@H](CC(=O)O)NC(=O)[C@@H](NC(=O)[C@@H](NC(=O)[C@@H](NC(=O)[C@@H](NC(=O)[C@H](CCN)NC(=O)C(C)(C)NC(=O)CNC(=O)[C@@H](CCCNC(=N)N)NC(=O)[C@@H](CCCNC(=N)N)NC(=O)[C@@H](CCCNC(=N)N)NC(=O)[C@@H](CCC(N)=O)NC(=O)[C@@H](CCCNC(=N)N)NC(=O)[C@@H](CCCNC(=N)N)NC(=O)[C@@H](CCCCN)NC(=O)[C@@H](CCCCN)NC(=O)[C@@H](CCCNC(=N)N)NC(=O)CNC(=O)[C@H](N)Cc1ccc(O)cc1)[C@@H](C)O)C(C)(C)C)C(C)(C)C)[C@@H](C)O)C(=O)O [Polypeptide compound 14, y-G-r-k-k-r-r-q-r-r-r-G-Aib-Dab-T-Tle-Tle-T-D-V] (H-[dY]G[dR][dK][dK][dR][dR][dQ][dR][dR][dR]G[Aib][Dab]T[Tle][Tle]TDV-OH) | 34.1±21.7 | 18.2±5.2 | 38.7±16.8 | 45.3±3.3 | 45.5±14.4 | 41.9±23.3 | 59.4±53.5 | 71.4±38.7 | 50.2±28.7 | 754.7±448.6 | 558.0±405.6 | 265.3±145.7 | no significant increase in histamine levels | nearly twice that of NA-1
2 | YGRKKRRQRRRKLSSIESDV [NA-1, YGRKKRRQR RRKLSSIESDV, reference compound] |  |  |  |  |  |  |  |  | 21.0±5.9 | 390.7±164.2 | 86.6±36.6 | 48.3±19.2 |  | 
